Source: patent US11447485B2, “Class of bifunctional compounds with quanternary ammonium salt structure” (Beijing Showby Pharmaceutical Co., Ltd., priority 2016, dated 2022)

Columns and labels:
[1] = molecular target: human recombinant M1 receptor (Homo sapiens, UniProt P11229); experiment: biochemical; format: binding; conditions: for M1/M2: Mx/My = Ki(y)/Ki(x)
[2] = molecular target: human recombinant M2 receptor (Homo sapiens, UniProt P08172); experiment: biochemical; format: binding
[3] = molecular target: T1, human recombinant β2 adrenoceptor (Homo sapiens, UniProt P07550); experiment: cell-based; format: cell-based
T1 construct: expressed in transfected cells
T1 sequence (P07550 whole entry): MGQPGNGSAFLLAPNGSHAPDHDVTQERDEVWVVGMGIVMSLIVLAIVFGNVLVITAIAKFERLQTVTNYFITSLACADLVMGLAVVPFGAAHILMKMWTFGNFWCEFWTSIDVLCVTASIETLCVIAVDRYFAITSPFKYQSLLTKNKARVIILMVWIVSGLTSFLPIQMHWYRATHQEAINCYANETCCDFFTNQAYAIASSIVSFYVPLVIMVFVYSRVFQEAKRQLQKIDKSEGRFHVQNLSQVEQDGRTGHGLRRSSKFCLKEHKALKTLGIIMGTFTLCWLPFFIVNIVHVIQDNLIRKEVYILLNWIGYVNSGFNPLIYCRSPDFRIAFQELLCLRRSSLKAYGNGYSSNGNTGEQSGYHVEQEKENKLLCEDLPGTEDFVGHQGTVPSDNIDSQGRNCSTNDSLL

[4] = molecular target: human recombinant M3 receptor (Homo sapiens, UniProt P20309); experiment: biochemical; format: binding; conditions: for M1/M3 / M2/M3: Mx/My = Ki(y)/Ki(x)
human recombinant M3 receptor, sequence (P20309 whole entry): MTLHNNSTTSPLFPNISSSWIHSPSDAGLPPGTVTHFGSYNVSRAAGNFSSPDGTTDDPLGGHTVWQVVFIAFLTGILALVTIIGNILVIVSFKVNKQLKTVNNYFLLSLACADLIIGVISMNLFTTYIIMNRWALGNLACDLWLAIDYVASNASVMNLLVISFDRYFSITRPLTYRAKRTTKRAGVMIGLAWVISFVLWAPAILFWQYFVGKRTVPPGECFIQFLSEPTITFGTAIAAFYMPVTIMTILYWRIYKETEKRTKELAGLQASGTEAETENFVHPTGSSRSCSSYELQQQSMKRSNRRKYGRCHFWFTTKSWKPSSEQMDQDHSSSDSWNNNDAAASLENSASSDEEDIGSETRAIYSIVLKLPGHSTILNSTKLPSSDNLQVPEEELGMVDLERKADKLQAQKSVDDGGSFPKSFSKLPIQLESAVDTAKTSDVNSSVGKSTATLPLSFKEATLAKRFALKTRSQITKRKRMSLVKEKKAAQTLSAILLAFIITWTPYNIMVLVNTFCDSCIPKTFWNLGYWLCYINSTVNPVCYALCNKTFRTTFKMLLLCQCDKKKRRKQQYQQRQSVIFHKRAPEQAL

[5] = test system: tracheal smooth muscle of guinea pig; experiment: Relaxation of CCh-induced constriction of isolated guinea pig tracheal smooth muscle (Experimental Example 1); conditions: in vitro; for Onset time (min) ± SD / Time for eliminating inhibition effect (min): CCh 3 × 10^−6 mol/L
[6] = molecular target: T2, human recombinant β1 adrenoceptor (Homo sapiens, UniProt P08588); experiment: cAMP accumulation, human recombinant β1 adrenoceptor; format: cell-based
T2 construct: expressed in transfected cells
T2 sequence (P08588 whole entry): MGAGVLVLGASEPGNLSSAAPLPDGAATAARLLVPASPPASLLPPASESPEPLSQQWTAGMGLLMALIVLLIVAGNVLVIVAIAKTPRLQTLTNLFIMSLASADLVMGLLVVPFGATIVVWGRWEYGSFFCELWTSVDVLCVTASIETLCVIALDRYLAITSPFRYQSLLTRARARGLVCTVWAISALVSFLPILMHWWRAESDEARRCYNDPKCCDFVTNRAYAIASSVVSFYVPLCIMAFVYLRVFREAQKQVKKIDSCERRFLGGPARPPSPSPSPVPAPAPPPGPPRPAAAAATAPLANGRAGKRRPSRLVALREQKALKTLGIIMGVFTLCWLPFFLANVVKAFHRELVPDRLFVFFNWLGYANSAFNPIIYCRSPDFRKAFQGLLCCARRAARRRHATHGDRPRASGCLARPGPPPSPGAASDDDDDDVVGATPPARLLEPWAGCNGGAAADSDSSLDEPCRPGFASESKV
Method: In order to measure the activity and selectivity of agonists to human β1 and β2 adrenoceptors, the cAMP accumulation of expressed receptors in each recombinant cell line was measured. cAMP was determined by homology radioimmunoassay, that is, cells were washed with PSB buffer solution and suspended in the buffer solution at room temperature to grow to 30000-40000 cells per well. The test compound was diluted with PSB buffer solution containing 0.1% BSA and tested at 11 gradient concentrations ranging from 100 uM to 0.1 pM. For the analysis of β1-adrenoceptor, 10 nM of ICI118551 was added to block the expression of β2-adrenoceptor in HEK293 cells. After the compound was added to the suspended cells, the scintillation plate was incubated at 37° C. for 10 minutes, the reaction was terminated with ice-cold detection buffer solution, and its radioactivity was measured after storage at 4° C. overnight.
The agonistic activity (pEC50 value) was analyzed by regression using S-type dose response model of software package (GraphPad Software, San Diego, Calif.). Selectivity was calculated from the ratio of measured cAMP of β1 and β2 adrenoceptors, which was expressed as sel. β1/β2=(EC50 (β1)/EC50 (β2)).

[7] = Liver microsome metabolic stability in vitro (SD rat); conditions: SD rat liver microsomes
Method: (§1) The area ratio of the 0 min sample was taken as 100%, and the remaining percentage of the compound after incubation at different times was obtained at each time point by comparison with the sample. With the natural logarithm of this percentage on the ordinate and time on the abscissa, a scatter plot was drawn to simulate a straight line with a negative slope of k. The parameters were calculated according to the formula.
(§2) Liver weight indicates the liver weight (g) per kilogram of body weight, and P450 indicates the amount (mg) of P450 enzyme per gram of liver.

[8] = Lung homogenate stability in vitro (human); format: in vitro ADME; conditions: 8 h, 37° C.
[9] = test system: M receptor of guinea pig tracheal smooth muscle; experiment: MA activity: guinea pig isolated trachea, propranolol blocks β receptor, CCh constriction; conditions: Cavia porcellus; propranolol 10^−5 mol/L, CCh 3×10^−6 mol/L
Method: (2) Blocking Effect of Example Compounds on M Receptor of Guinea Pig Tracheal Smooth Muscle
(§3) Preparation of an isolated tracheal smooth muscle specimen of a guinea pig: same as Experiment Example 1.
Administration method: After trachea flake was stabilized, propranolol hydrochloride solution with a final concentration of 10^−5 mol/L was added to block β receptor for 10 min, carbachol with a final concentration of 3×10^−6 mol/L was added (observing M receptor antagonism of compound after propranolol blocks β receptor), and administration was started when the pressure value of the trachea flake was increased to a stable platform. The experiments were divided into a blank group, a propranolol+blank group, each test sample administration group and a propranolol+each test sample administration group. DMSO solution prepared by K—H solution and 50 μl of test sample solution were added to each group of the blank group and each test sample administration group respectively. The propranolol+blank group and propranolol+each test sample administration group were added with 50 μl propranolol solution for 10 min respectively, and then added with DMSO solution prepared from K—H solution and 50 μl of test sample solution. The test sample administration group was added with the compounds to be tested with final concentrations of 10^−9, 0.3×10^−8, 10^−8, 0.3×10^−7, 10^−7, 0.3×10^−6 and 10^−6 mol/L at cumulative concentration, and the blank group was added with corresponding diluted DMSO solution. The propranolol+each test sample administration group was added with propranolol for 10 min, and then added with the compounds to be tested with final concentrations of 10^−9, 0.3×10^−8, 10^−8, 0.3×10^−7, 10^−7, 0.3×10^−6 and 10^−6 mol/L at cumulative concentration. After the propranolol+blank group was added with propranolol for 10 min, corresponding diluted DMSO solution was added. Medlab was used to record the relaxation degree of tracheal smooth muscle, finally sodium nitroprusside with a final concentration of […] was added as 100% relaxation.

[10] = Liver microsome metabolic stability in vitro (human); conditions: Human liver microsomes
Method: as §1, §2

[11] = test system: heart rate of Beagle dogs; experiment: Heart rate changes after iv administration in Beagle dogs; format: in vivo, Beagle dog
Method: Beagle dogs were randomly divided into two groups, half male and half female, and were intravenously injected (iv) with 7.5% ethanol solution of compounds of the invention and control compound. Each compound was set up in two dosage groups of 0.01 mg/kg and 0.10 mg/kg.

[12] = test system: guinea pig tracheal smooth muscle (MABA); experiment: MABA activity: relaxation of CCh pre-constricted guinea pig isolated trachea; conditions: Cavia porcellus; CCh 3×10^−6 mol/L
Method: (1) The Constriction Effect of Tracheal Smooth Muscle of Guinea Pig Induced by the Example Compounds Antagonizing Carbachol (CCh)
as §3
Administration Method: After the trachea flake were stabilized, carbachol with a final concentration of 3×10^−6 mol/L was added, and administration was started when the pressure value of the trachea flake was increased to a stable platform. The experiments were divided into blank group and each test sample administration group. DMSO solution prepared from K—H solution and 50 μl of each test sample solution were added to each group respectively. The test sample administration group was added with 10^−9, 0.3×10^−8, 10^−8, 0.3×10^−7, 10^−7, 0.3×10^−6 and 10^−6 mol/L of test compound and control substance at cumulative concentration. The blank group was added with corresponding diluted DMSO solution. Medlab was used to record the relaxation degree of smooth muscle of the trachea flake. Finally, isoproterenol with a final concentration of 10^−5 mol/L was added as 100% relaxation.

[13] = Liver microsome metabolic stability in vitro (Beagle dog); conditions: Beagle dog liver microsomes
Method: as §1, §2

[14] = Lung homogenate stability in vitro (dog); format: in vitro ADME, Beagle dog; conditions: 8 h, 37° C.
Method: The compounds of the invention were respectively incubated with the lung homogenate of Beagle dogs for 8 hours in a water bath at 37° C., and sample was analysed by LC-MS/MS when the reaction was terminated.

[15] = test system: β2 receptor in guinea pig tracheal smooth muscle; experiment: BA activity: guinea pig isolated trachea pre-treated with histamine; conditions: Cavia porcellus, read-out: BA (EC50, nM)
Method: (3) The Antagonism of the Example Compounds on β2 Receptor in Guinea Pig Tracheal Smooth Muscle
as §3
Administration Method: After the trachea flake was stabilized, histamine solution with a final concentration of 3×10^−5 mol/L was added for 10 min, carbachol with a final concentration of 3×10^−6 mol/L was added (observing β receptor antagonism), and administration was started when the pressure value of the trachea flake was increased to a stable platform. The experiments were divided into a blank group, a histamine+blank group, each test sample administration group and a histamine+each test sample administration group. DMSO solution prepared by K—H solution and 50 μl of test sample solution were added to each group of the blank group and each test sample administration group respectively. The histamine+blank group and histamine+each test sample administration group were added with 50 μl histamine solution for 10 min respectively, then added with DMSO solution prepared by K—H solution and 50 μl test sample solution. The test sample administration group was added with the compounds to be tested with final concentrations of 10^−9, 0.3×10^−8, 10^−8, 0.3×10^−7, 10^−7, 0.3×10^−6 and 10^−6 mol/L at cumulative concentration, and the blank group was added with corresponding diluted DMSO solution. The histamine+each test sample administration group was added with histamine for 10 min, and then added with the test compounds with final concentrations of 10^−9, 0.3×10^−8, 10^−8, 0.3×10^−7, 10^−7, 0.3×10^−6 and 10^−6 mol/L at cumulative concentration. After the histamine+blank group was added with histamine for 10 m, corresponding diluted DMSO solution was added. Medlab was used to record the relaxation degree of smooth muscle of the trachea flake. Finally theophylline with a final concentration of 2×10^−4 mol/L was added as 100% relaxation.

human recombinant M1 receptor, sequence (P11229 whole entry): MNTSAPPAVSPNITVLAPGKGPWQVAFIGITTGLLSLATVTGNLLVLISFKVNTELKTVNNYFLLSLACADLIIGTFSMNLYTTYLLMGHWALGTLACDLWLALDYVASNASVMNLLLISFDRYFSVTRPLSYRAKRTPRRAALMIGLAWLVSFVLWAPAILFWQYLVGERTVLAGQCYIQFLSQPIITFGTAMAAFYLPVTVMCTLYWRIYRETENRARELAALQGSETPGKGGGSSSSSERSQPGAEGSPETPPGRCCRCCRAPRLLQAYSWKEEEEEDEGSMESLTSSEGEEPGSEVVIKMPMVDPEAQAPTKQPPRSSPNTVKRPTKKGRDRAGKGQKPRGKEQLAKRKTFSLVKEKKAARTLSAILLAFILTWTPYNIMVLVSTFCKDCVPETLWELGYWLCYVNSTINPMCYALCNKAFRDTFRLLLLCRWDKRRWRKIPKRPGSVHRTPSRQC
human recombinant M2 receptor, sequence (P08172 whole entry): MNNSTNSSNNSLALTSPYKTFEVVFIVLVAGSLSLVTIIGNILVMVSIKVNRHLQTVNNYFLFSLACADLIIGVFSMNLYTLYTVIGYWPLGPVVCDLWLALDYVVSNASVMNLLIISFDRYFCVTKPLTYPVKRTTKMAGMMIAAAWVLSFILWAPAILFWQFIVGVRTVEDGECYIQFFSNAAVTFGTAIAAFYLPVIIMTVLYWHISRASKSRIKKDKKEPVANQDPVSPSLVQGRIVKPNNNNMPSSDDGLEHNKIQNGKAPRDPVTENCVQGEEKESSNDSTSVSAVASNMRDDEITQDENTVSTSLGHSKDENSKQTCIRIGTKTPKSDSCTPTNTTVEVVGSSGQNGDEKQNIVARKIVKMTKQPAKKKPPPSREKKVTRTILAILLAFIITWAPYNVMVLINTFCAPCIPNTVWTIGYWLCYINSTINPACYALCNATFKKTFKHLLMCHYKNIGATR

SMILES | liver extraction rate (ERh) [7] | Residual rate after incubation of human lung homogenate (%) [8] | EC50 [9] | liver extraction rate (ERh) [10] | 0.5-4 h area increase under heart rate curve (%) ([11]; 0.01 mg/kg iv) | 0.5-4 h area increase under heart rate curve (%) ([11]; 0.10 mg/kg iv) | EC50 [12] | liver extraction rate (ERh) [13] | Residual rate after incubation of dog lung homogenate (%) [14] | EC50 [15] | further results
OCc1cc([C@@H](O)CNCCC[N+]23CCC(CC2)[C@@H](OC[C@@](O)(c2ccccc2)C2CCCC2)C3)ccc1O [Compound 1, (R)-(−)-3-[(R)-2-hydroxy-2-cyclopentyl-2-phenyl]ethoxy-1-{3-[(R)-2-(3-hydroxymethyl-4-hydroxy)phenyl-2-hydroxyethylamino]propyl}-1-azabicyclo[2,2,2]octylonium bromide] |  |  |  |  |  |  |  |  |  |  | Ki [1]: 0.733 ± 0.32 nM; M1/M2 [1]: 1.3206; Ki [2]: 0.968 ± 0.15 nM; sel (β1/β2) [3]: 15.4; EC50 ([3]; cAMP accumulation): 12.8 ± 4.2 nM; Ki [4]: 0.561 ± 0.22 nM; M1/M3 [4]: 0.7653; M2/M3 [4]: 0.5795; Onset time (min) ± SD [5]: 6.82 ± 0.30 min; Time for eliminating inhibition effect (min) [5]: more than 300 min; EC50 ([5]; Cavia porcellus, constriction induced by CCh 3 × 10^−6 mol/L, read-out: EC50 (μM) ± SD): 0.767 ± 0.18 µM; EC50 [6]: 197 ± 87 nM
O=CNc1cc([C@@H](O)CNCc2c(Cl)cc(OCCC[N+]34CCC(CC3)[C@@H](OC[C@](O)(c3ccccc3)C3CCCC3)C4)cc2Cl)ccc1O.[Br-] [Compound 59] |  |  |  |  |  |  |  |  |  |  | M1/M2 [1]: 7.0601; sel (β1/β2) [3]: 213.4; M1/M3 [4]: 0.4629; M2/M3 [4]: 0.0656; Onset time (min) ± SD [5]: 6.53 ± 0.66 min; Time for eliminating inhibition effect (min) [5]: more than 300 min
O=CNc1cc([C@@H](O)CNCCCOc2ccc(OCCC[N+]34CCC(CC3)[C@@H](OC[C@@](O)(c3ccccc3)C3CCCC3)C4)cc2)ccc1O [Compound 113, (R)-(−)-3-[(R)-2-hydroxy-2-cyclopentyl-2-phenyl]ethoxy-1-{3-[4-(3-{(R)-[2-hydroxy-2-(3-formamido-4-hydroxy)phenyl]ethylamino}propoxy)phenoxy]propyl}-1-azabicyclo[2,2,2]octylonium bromide] | 0.96 | 93% | 15.6 ± 2.6 nM | 0.97 | −3.4% | 3.3% | 7.2 ± 1.4 nM | 0.96 | 93% | 17.6 ± 1.9 nM | 
CC(NC[C@H](O)c1ccc(O)c(CO)c1)c1ccc(OCCC[N+]23CCC(CC2)[C@@H](OC[C@@](O)(c2ccccc2)C2CCCC2)C3)cc1 (some centres unmarked) [Compound 69] | 0.96 | 94% | 27.7 ± 3.4 nM | 0.95 | −5.1% | −3.4% | 7.6 ± 1.8 nM | 0.94 | 90% | 18.7 ± 2.8 nM | 
OCc1cc([C@@H](O)CNCCCOc2ccc(OCCC[N+]34CCC(CC3)[C@@H](OC[C@@](O)(c3ccccc3)C3CCCC3)C4)cc2)ccc1O.[Br-] [Compound 122] | 0.97 | 95% | 56.7 ± 6.6 nM | 0.93 | 6.6% | 0% | 15.6 ± 3.6 nM | 0.98 | 92% | 36.8 ± 4.1 nM | 
OCc1cc([C@@H](O)CNCCCCCCCCC[N+]23CCC(CC2)[C@@H](OC[C@@](O)(c2ccccc2)C2CCCC2)C3)ccc1O.[Br-] [Compound 7] | 0.97 | 93% | 290 ± 12.3 nM | 0.94 | −0.5% | 0% | 72.3 ± 14.6 nM | 0.98 | 95% | 162 ± 9.8 nM | 
O=c1ccc2c([C@@H](O)CNCCCOc3ccc(OCCC[N+]45CCC(CC4)[C@@H](OC[C@@](O)(c4ccccc4)C4CCCC4)C5)cc3)ccc(O)c2[nH]1.[Br-] [Compound 131] | 0.93 | 90% | 30.2 ± 8.1 nM | 0.99 | 10% | 2.9% | 4 ± 1 nM | 0.93 | 94% | 9.2 ± 1.6 nM | 
